Results as given in patent EP1228058B1, “BENZOPYRANYL GUANIDINE DERIVATIVES, PROCESS FOR PREPARATION THEREOF, AND PHARMACEUTICAL COMPOSITIONS CONTAINING THEM” (Dongbu Hannong Chemical Co., Ltd., priority 1999, dated 2001).

test: Acute oral toxicity test in rats; settings: rat, in vivo, single oral dose in 0.5% methyl cellulose, read-out: lethal dose (LD50) for oral administration
Description: In this test six-week old SPF SD rats were used with two rats assigned to each group. The compounds of examples 1, 2, 3, 5, 7, 8, 9, 10, 13, 14, 15, 19, 22, 23, 24, 25, 26, 28, 29, 30, 31, 32, 33, 34, 35, 36, 37, 38, 39, 40, 41, 44, 46, 47, 48, 49, 51, 52, 57, 58, 60, 62, 64, 67, 68, 69, 71 and 72 were suspended in 0.5% methyl cellulose, respectively, and administered orally at a single dose of 1 g/kg using a ball-tipped needle. The dosing volume was 10 ml/kg. […] All survivors at the end of the observation period underwent laparotomy under ether anesthesia and the blood samples were taken from the abdominal aorta for hematological tests and biochemical analysis. After sacrificing the animals, autopsy was performed for macroscopic observation of the organs and tissues. Tissue samples of vital organs from macroscopic legion were removed and fixed in 10% neutral buffered formalin solution, then processed by standard procedures for histopathology and examined under light microscope. There were no significant changes in clinical symptoms, body weight and mortalities. Also in hematology, serum chemistry parameters and macroscopic observation, no drug-related changes were observed.

| Structure (SMILES) | LD50 |
| --- | --- |
| COC(OC)[C@]1(C)Oc2ccc([N+](=O)[O-])cc2[C@H](NC(=NC#N)Nc2ccc(Cl)cc2)[C@H]1O [Example 1, (2R, 3R, 4S)-N''-cyano-N-(6-nitro-3,4-dihydro-3-hydroxy-2-methyl-2-dimethoxymethyl-2H-benzopyran-4-yl)-N'-(4-chlorophenyl)guanidine] | > 1000 mg/kg |
| COC(OC)[C@]1(C)Oc2ccc([N+](=O)[O-])cc2[C@H](NC(=NC#N)Nc2cccc(Cl)c2)[C@H]1O [Example 3, (2R, 3R, 4S)-N''-cyano-N-(6-nitro-3,4-dihydro-3-hydroxy-2-methyl-2-dimethoxymethyl-2H-benzopyran-4-yl)-N'-(3-chlorophenyl)guanidine] | > 1000 mg/kg |
| COC(OC)[C@]1(C)Oc2ccc([N+](=O)[O-])cc2[C@H](NC(=NC#N)Nc2ccc([N+](=O)[O-])cc2)[C@H]1O [Example 5, (2R, 3R, 4S)-N''-cyano-N-(6-nitro-3,4-dihydro-3-hydroxy-2-methyl-2-dimethoxymethyl-2H-benzopyran-4-yl)-N'-(4-nitrophenyl)guanidine] | > 1000 mg/kg |
| COc1ccc(NC(=NC#N)N[C@H]2c3cc([N+](=O)[O-])ccc3O[C@@](C)(C(OC)OC)[C@@H]2O)cc1 [Example 8, (2R, 3R, 4S)-N''-cyano-N-(6-nitro-3,4-dihydro-3-hydroxy-2-methyl-2-dimethoxymethyl-2H-benzopyran-4-yl)-N'-(4-methoxyphenyl) guanidine] | > 1000 mg/kg |
| COc1ccc(NC(=NC#N)N[C@@H]2c3cc([N+](=O)[O-])ccc3O[C@@](C)(C(OC)OC)[C@H]2O)cc1 [Example 9, (2R, 3S, 4R)-N''-cyano-N-(6-nitro-3,4-dihydro-3-hydroxy-2-methyl-2-dimethoxymethyl-2H-benzopyran-4-yl)-N'-(4-methoxyphenyl) guanidine] | > 1000 mg/kg |
| COC(OC)[C@@]1(C)Oc2ccc([N+](=O)[O-])cc2[C@@H](NC(=NC#N)Nc2cccc(Cl)c2)[C@@H]1O [Example 13, (2S, 3S, 4R)-N''-cyano-N-(6-nitro-3,4-dihydro-3-hydroxy-2-methyl-2-dimethoxymethyl-2H-benzopyran-4-yl)-N'-(3-chlorophenyl)guanidine] | > 1000 mg/kg |
| COC(OC)[C@@]1(C)Oc2ccc([N+](=O)[O-])cc2[C@H](NC(=NC#N)Nc2cccc(C(F)(F)F)c2)[C@H]1O [Example 14, (2S, 3R, 4S)-N''-cyano-N-(6-nitro-3,4-dihydro-3-hydroxy-2-methyl-2-dimethoxymethyl-2H-benzopyran-4-yl)-N'-(3-trifluoromethylphenyl)guanidine] | > 1000 mg/kg |
| COC(OC)[C@]1(C)Oc2ccc([N+](=O)[O-])cc2[C@@H](NC(=NC#N)Nc2ccc(C)cc2)[C@@H]1O [Example 19, (2R, 3S, 4R)-N''-cyano-N-(6-nitro-3,4-dihydro-3-hydroxy-2-methyl-2-dimethoxymethyl-2H-benzopyran-4-yl)-N'-(4-methylphenyl)guanidine] | > 1000 mg/kg |
| COC(OC)[C@]1(C)Oc2ccc([N+](=O)[O-])cc2[C@@H](NC(=NC#N)NCc2ccccc2)[C@@H]1O [Example 23, (2R, 3S, 4R)-N''-cyano-N-(6-nitro-3,4-dihydro-3-hydroxy-2-methyl-2-dimethoxymethyl-2H-benzopyran-4-yl)-N'-benzylguanidine] | > 1000 mg/kg |
| COC(OC)[C@]1(C)Oc2ccccc2[C@H](NC(=NC#N)Nc2ccc(Cl)cc2)[C@H]1O [Example 26, (2R, 3R, 4S)-N''-cyano-N-(3,4-dihydro-3-hydroxy-2-methyl-2-dimethoxymethyl-2H-benzopyran-4-yl)-N'-(4-chlorophenyl)guanidine] | > 1000 mg/kg |
| C[C@]1(CO)Oc2ccc([N+](=O)[O-])cc2[C@H](NC(=NC#N)Nc2ccc(Cl)cc2)[C@H]1O [Example 28, (2R, 3R, 4S)-N''-cyano-N-(6-nitro-3,4-dihydro-3-hydroxy-2-methyl-2-hydroxymethyl-2H-benzopyran-4-yl)-N'-(4-chlorophenyl)guanidine] | > 1000 mg/kg |
| C[C@]1(CO)Oc2ccc([N+](=O)[O-])cc2[C@@H](NC(=NC#N)Nc2ccc(Cl)cc2)[C@@H]1O [Example 29, (2R, 3S, 4R)-N''-cyano-N-(6-nitro-3,4-dihydro-3-hydroxy-2-methyl-2-hydroxymethyl-2H-benzopyran-4-yl)-N'-(4-chlorophenyl)guanidine] | > 1000 mg/kg |
| COC[C@@]1(C)Oc2ccc([N+](=O)[O-])cc2[C@H](NC(=NC#N)Nc2ccc(Cl)cc2)[C@H]1O [Example 30, (2R, 3R, 4S)-N''-cyano-N-(6-nitro-3,4-dihydro-3-hydroxy-2-methyl-2-methoxymethyl-2H-benzopyran-4-yl)-N'-(4-chlorophenyl)guanidine] | > 1000 mg/kg |
| COC[C@@]1(C)Oc2ccc([N+](=O)[O-])cc2[C@@H](NC(=NC#N)Nc2ccc(Cl)cc2)[C@@H]1O [Example 31, (2R, 3S, 4R)-N''-cyano-N-(6-nitro-3,4-dihydro-3-hydroxy-2-methyl-2-methoxymethyl-2H-benzopyran-4-yl)-N'-(4-chlorophenyl)guanidine] | > 1000 mg/kg |
| COC(OC)[C@@]1(C)Oc2ccc([N+](=O)[O-])cc2[C@@H](NC(=NC#N)Nc2ccccc2Cl)[C@@H]1O [Example 33, (2S, 3S, 4R)-N''-cyano-N-(6-nitro-3,4-dihydro-3-hydroxy-2-methyl-2-dimethoxymethyl-2H-benzopyran-4-yl)-N'-(2-chlorophenyl)guanidine] | > 1000 mg/kg |
| COC(OC)[C@@]1(C)Oc2ccc([N+](=O)[O-])cc2[C@H](NC(=NC#N)Nc2ccccc2C(F)(F)F)[C@H]1O [Example 34, (2S, 3R, 4S)-N''-cyano-N-(6-nitro-3,4-dihydro-3-hydroxy-2-methyl-2-dimethoxymethyl-2H-benzopyran-4-yl)-N'-(2-trifluoromethylphenyl)guanidine] | > 1000 mg/kg |
| COC(OC)[C@@]1(C)Oc2ccc([N+](=O)[O-])cc2[C@@H](NC(=NC#N)Nc2ccccc2C(F)(F)F)[C@@H]1O [Example 35, (2S, 3S, 4R)-N''-cyano-N-(6-nitro-3,4-dihydro-3-hydroxy-2-methyl-2-dimethoxymethyl-2H-benzopyran-4-yl)-N'-(2-trifluoromethylphenyl)guanidine] | > 1000 mg/kg |
| COC(OC)[C@@]1(C)Oc2ccc([N+](=O)[O-])cc2[C@H](NC(=NC#N)NCc2ccccc2Cl)[C@H]1O [Example 36, (2S, 3R, 4S)-N''-cyano-N-(6 - nitro-3,4-dihydro-3-hydroxy-2-methyl-2-dimethoxymethyl-2H-benzopyran-4-yl)-N'-(2-chlorobenzyl)guanidine] | > 1000 mg/kg |
| COC(OC)[C@@]1(C)Oc2ccc([N+](=O)[O-])cc2[C@@H](NC(=NC#N)NCc2ccccc2Cl)[C@@H]1O [Example 37, (2S, 3S, 4R)-N''-cyano-N-(6-nitro-3,4-dihydro-3-hydroxy-2-methyl-2-dimethoxymethyl-2H-benzopyran-4-yl)-N'-(2-chlorobenzyl)guanidine] | > 1000 mg/kg |
| COC(OC)[C@]1(C)C=C(NC(=NC#N)NCc2ccccc2)c2cc([N+](=O)[O-])ccc2O1 [Example 39, (2S)-N''-cyano-N-(6-nitro-2-methyl-2-dimethoxymethyl-2H-benzopyran-4-yl)-N'-benzylguanidine] | > 1000 mg/kg |
| COC(OC)[C@@]1(C)Oc2ccc(C#N)cc2[C@H](NC(=NC#N)Nc2ccc(Cl)cc2)[C@H]1O [Example 44, (2S, 3R, 4S)-N''-cyano-N-(6-cyano-3,4-dihydro-3-hydroxy-2-methyl-2-dimethoxymethyl-2H-benzopyran-4-yl)-N'-(4-chlorophenyl)guanidine] | > 1000 mg/kg |
| COC(OC)[C@@]1(C)Oc2ccc(C#N)cc2[C@H](NC(=NC#N)NCc2ccccc2)[C@H]1O [Example 46, (2S, 3R, 4S)-N''-cyano-N-(6-cyano-3,4-dihydro-3-hydroxy-2-methyl-2-dimethoxymethyl-2H-benzopyran-4-yl)-N'-benzylguanidine] | > 1000 mg/kg |
| COC(OC)[C@@]1(C)Oc2ccc(Br)cc2[C@@H](NC(=NC#N)NCc2ccccc2)[C@@H]1O [Example 47, (2S, 3S, 4R)-N''-cyano-N-(6-bromo-3,4-dihydro-3-hydroxy-2-methyl-2-dimethoxymethyl-2H-benzopyran-4-yl)-N'-benzylguanidine] | > 1000 mg/kg |
| COc1ccc(CNC(=NC#N)N[C@@H]2c3cc([N+](=O)[O-])ccc3O[C@](C)(C(OC)OC)[C@H]2O)cc1OC [Example 48, (2S, 3S, 4R)-N''-cyano-N-(6-nitro-3,4-dihydro-3-hydroxy-2-methyl-2-dimethoxymethyl-2H-benzopyran-4-yl)-N'-(3,4-dimethoxybenzyl) guanidine] | > 1000 mg/kg |
| COc1ccc(CNC(=NC#N)N[C@@H]2c3cc(N)ccc3O[C@](C)(C(OC)OC)[C@H]2O)cc1OC [Example 49, (2S, 3S, 4R)-N''-cyano-N-(6-amino-3,4-dihydro-3-hydroxy-2-methyl-2-dimethoxymethyl-2H-benzopyran-4-yl)-N'-(3,4-dimethoxybenzyl) guanidine] | > 1000 mg/kg |
| COc1ccc(CNC(=NC#N)N[C@@H]2c3cc(N)ccc3O[C@](C)(C(OC)OC)[C@H]2O)cc1 [Example 51, (2S,3S,4R)-N''-cyano-N-(6-amino-3,4-dihydro-3-hydroxy-2-methyl-2-dimethoxymethyl-2H-benzopyran-4-yl)-N'-(4-methoxybenzyl) guanidine] | > 1000 mg/kg |
| COC(OC)[C@@]1(C)Oc2ccc(N)cc2[C@H](/N=C(\NC#N)NCc2ccccc2)[C@H]1O [Example 57, (2S, 3R, 4S)-N''-cyano-N-(6-amino-3,4-dihydro-3-hydroxy-2-methyl-2-dimethoxymethyl-2H-benzopyran-4-yl)-N'-benzylguanidine] | > 1000 mg/kg |
